Assay: wn = mass fraction of the nth substance listed
Conditions: Liquid; for mass density: Vibrating tube method; for viscosity: Falling or rolling sphere viscometry

c1ccc2c(c1)CCCC2 [1,2,3,4-tetrahydronaphthalene] + CCCCCCCCCCCC
Conditions | mass density [kg/m3] | viscosity [mPa·s]
293.15 K, 100 kPa, w2 = 0.5 | 844.4 | –
293.15 K, 2000 kPa, w2 = 0.5 | 845.7 | –
293.15 K, 4000 kPa, w2 = 0.5 | 846.8 | –
293.15 K, 6000 kPa, w2 = 0.5 | 848 | –
293.15 K, 8000 kPa, w2 = 0.5 | 849.5 | –
293.15 K, 10000 kPa, w2 = 0.5 | 850.8 | –
293.15 K, 12000 kPa, w2 = 0.5 | 851.9 | –
293.15 K, 14000 kPa, w2 = 0.5 | 853.1 | –
293.15 K, 16000 kPa, w2 = 0.5 | 854.2 | –
293.15 K, 18000 kPa, w2 = 0.5 | 855.4 | –
293.15 K, 20000 kPa, w2 = 0.5 | 856.6 | –
295.65 K, 100 kPa, w2 = 0.5 | 842.4 | –
295.65 K, 2000 kPa, w2 = 0.5 | 843.6 | –
295.65 K, 4000 kPa, w2 = 0.5 | 844.9 | –
295.65 K, 6000 kPa, w2 = 0.5 | 846 | –
295.65 K, 8000 kPa, w2 = 0.5 | 847.4 | –
295.65 K, 10000 kPa, w2 = 0.5 | 848.6 | –
295.65 K, 12000 kPa, w2 = 0.5 | 849.8 | –
295.65 K, 14000 kPa, w2 = 0.5 | 851 | –
295.65 K, 16000 kPa, w2 = 0.5 | 852.1 | –
295.65 K, 18000 kPa, w2 = 0.5 | 853.3 | –
295.65 K, 20000 kPa, w2 = 0.5 | 854.4 | –
298.15 K, 100 kPa, w1 = 0.48 | 835.7 | –
298.15 K, 100 kPa, w1 = 0.49 | 838.4 | –
298.15 K, 100 kPa, w1 = 0.5 | 840.7 | –
298.15 K, 100 kPa, w1 = 0.51 | 842.7 | –
298.15 K, 100 kPa, w1 = 0.52 | 844.8 | –
298.15 K, 100 kPa, w2 = 0.5 | 840.7 | 1.46
298.15 K, 2000 kPa, w1 = 0.48 | 836.9 | –
298.15 K, 2000 kPa, w1 = 0.49 | 839.7 | –
298.15 K, 2000 kPa, w1 = 0.5 | 842 | –
298.15 K, 2000 kPa, w1 = 0.51 | 844 | –
298.15 K, 2000 kPa, w1 = 0.52 | 846.1 | –
298.15 K, 2000 kPa, w2 = 0.5 | 842 | –
298.15 K, 4000 kPa, w1 = 0.48 | 838.3 | –
298.15 K, 4000 kPa, w1 = 0.49 | 841 | –
298.15 K, 4000 kPa, w1 = 0.5 | 843.4 | –
298.15 K, 4000 kPa, w1 = 0.51 | 845.3 | –
298.15 K, 4000 kPa, w1 = 0.52 | 847.5 | –
298.15 K, 4000 kPa, w2 = 0.5 | 843.4 | 1.53
298.15 K, 6000 kPa, w1 = 0.48 | 839.6 | –
298.15 K, 6000 kPa, w1 = 0.49 | 842.2 | –
298.15 K, 6000 kPa, w1 = 0.5 | 844.7 | –
298.15 K, 6000 kPa, w1 = 0.51 | 846.5 | –
298.15 K, 6000 kPa, w1 = 0.52 | 848.7 | –
298.15 K, 6000 kPa, w2 = 0.5 | 844.7 | –
298.15 K, 8000 kPa, w1 = 0.48 | 840.9 | –
298.15 K, 8000 kPa, w1 = 0.49 | 843.5 | –
298.15 K, 8000 kPa, w1 = 0.5 | 845.9 | –
298.15 K, 8000 kPa, w1 = 0.51 | 847.8 | –
298.15 K, 8000 kPa, w1 = 0.52 | 849.9 | –
298.15 K, 8000 kPa, w2 = 0.5 | 845.9 | –
298.15 K, 10000 kPa, w1 = 0.48 | 842.1 | –
298.15 K, 10000 kPa, w1 = 0.49 | 844.7 | –
298.15 K, 10000 kPa, w1 = 0.5 | 847.1 | –
298.15 K, 10000 kPa, w1 = 0.51 | 848.8 | –
298.15 K, 10000 kPa, w1 = 0.52 | 851.1 | –
298.15 K, 10000 kPa, w2 = 0.5 | 847.1 | 1.64
298.15 K, 12000 kPa, w1 = 0.48 | 843.3 | –
298.15 K, 12000 kPa, w1 = 0.49 | 845.9 | –
298.15 K, 12000 kPa, w1 = 0.5 | 848.4 | –
298.15 K, 12000 kPa, w1 = 0.51 | 850.3 | –
298.15 K, 12000 kPa, w1 = 0.52 | 852.2 | –
298.15 K, 12000 kPa, w2 = 0.5 | 848.4 | –
298.15 K, 14000 kPa, w1 = 0.48 | 844.6 | –
298.15 K, 14000 kPa, w1 = 0.49 | 847.1 | –
298.15 K, 14000 kPa, w1 = 0.5 | 849.5 | –
298.15 K, 14000 kPa, w1 = 0.51 | 851.5 | –
298.15 K, 14000 kPa, w1 = 0.52 | 853.5 | –
298.15 K, 14000 kPa, w2 = 0.5 | 849.5 | –
298.15 K, 16000 kPa, w1 = 0.48 | 845.7 | –
298.15 K, 16000 kPa, w1 = 0.49 | 848.3 | –
298.15 K, 16000 kPa, w1 = 0.5 | 850.7 | –
298.15 K, 16000 kPa, w1 = 0.51 | 852.7 | –
298.15 K, 16000 kPa, w1 = 0.52 | 854.6 | –
298.15 K, 16000 kPa, w2 = 0.5 | 850.7 | –
298.15 K, 18000 kPa, w1 = 0.48 | 846.9 | –
298.15 K, 18000 kPa, w1 = 0.49 | 849.3 | –
298.15 K, 18000 kPa, w1 = 0.5 | 851.9 | –
298.15 K, 18000 kPa, w1 = 0.51 | 853.8 | –
298.15 K, 18000 kPa, w1 = 0.52 | 855.7 | –
298.15 K, 18000 kPa, w2 = 0.5 | 851.9 | –
298.15 K, 20000 kPa, w1 = 0.48 | 848.1 | –
298.15 K, 20000 kPa, w1 = 0.49 | 850.6 | –
298.15 K, 20000 kPa, w1 = 0.5 | 853 | –
298.15 K, 20000 kPa, w1 = 0.51 | 855 | –
298.15 K, 20000 kPa, w1 = 0.52 | 857 | –
298.15 K, 20000 kPa, w2 = 0.5 | 853 | –
300.65 K, 100 kPa, w2 = 0.5 | 838.8 | –
300.65 K, 2000 kPa, w2 = 0.5 | 840 | –
300.65 K, 4000 kPa, w2 = 0.5 | 841.3 | –
300.65 K, 6000 kPa, w2 = 0.5 | 842.5 | –
300.65 K, 8000 kPa, w2 = 0.5 | 843.8 | –
300.65 K, 10000 kPa, w2 = 0.5 | 845 | –
300.65 K, 12000 kPa, w2 = 0.5 | 846.3 | –
300.65 K, 14000 kPa, w2 = 0.5 | 847.5 | –
300.65 K, 16000 kPa, w2 = 0.5 | 848.8 | –
300.65 K, 18000 kPa, w2 = 0.5 | 849.9 | –
300.65 K, 20000 kPa, w2 = 0.5 | 851 | –
303.15 K, 100 kPa, w2 = 0.5 | 837.3 | –
303.15 K, 2000 kPa, w2 = 0.5 | 838.5 | –
303.15 K, 4000 kPa, w2 = 0.5 | 839.9 | –
303.15 K, 6000 kPa, w2 = 0.5 | 841.1 | –
303.15 K, 8000 kPa, w2 = 0.5 | 842.4 | –
303.15 K, 10000 kPa, w2 = 0.5 | 843.6 | –
303.15 K, 12000 kPa, w2 = 0.5 | 844.9 | –
303.15 K, 14000 kPa, w2 = 0.5 | 846.1 | –
303.15 K, 16000 kPa, w2 = 0.5 | 847.5 | –
303.15 K, 18000 kPa, w2 = 0.5 | 848.7 | –
303.15 K, 20000 kPa, w2 = 0.5 | 849.8 | –
